Test systems include SR; EKVX; RPMI-8226; KM12; MDA-N; NCI-H522; SNB-19; CCRF-CEM; SK-MEL-5; 786-0; OVCAR-4; COLO 205; NCI-H460; MOLT-4; LOX IMVI; Malme-3M; T47D; IGROV-1; HCC 2998.
Holding throughout (assay): inhibition of tumour cell growth, NCI panel, 48 h

The record followed here is ChEMBL document CHEMBL1201862, “PubChem BioAssay data set” (2004).

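The compound was tested at five concentrations on cells cultured in 96-well plates, with a 48-hour exposure period. Here, GI50 denotes the concentration required for 50% inhibition of growth.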 Active and inactive are the calls of the source. Cut-off read from the data, not from the text of the source: active = GI50 up to about 1.1 µM and inactive = higher.

Regarding `c1ccc2cc(NCNc3ccc4ccccc4c3)ccc2c1`, the GI50 with SR was 2.42 µM (inactive); in the assay on EKVX it was 14.6 µM (inactive); with RPMI-8226 it was 6.1 µM (inactive); with KM12, 13.6 µM (inactive); with MDA-N, 4.33 µM (inactive); in the assay on NCI-H522, 17.6 µM (inactive). In addition, the GI50 in the assay on SNB-19 is 28.1 µM (inactive); in the assay with CCRF-CEM, 11.8 µM (inactive); with SK-MEL-5, 6.25 µM (inactive); with 786-0, 17.3 µM (inactive); in the assay with OVCAR-4 it was 12.5 µM (inactive); with COLO 205 it was 18.8 µM (inactive). Besides, the GI50 in the assay with NCI-H460 is 13.4 µM (inactive); in the assay with MOLT-4 it was 0.785 µM (active); with LOX IMVI, 10.8 µM (inactive); in the assay with Malme-3M it was 0.927 µM (active); with T47D, 15.7 µM (inactive); in the assay on IGROV-1 it was 7.52 µM (inactive).

With `CC(=O)Oc1ccc2c(c1)CC[C@@H]1C2CC[C@]2(C)C(=O)NC(=O)CC12` (stereo partly specified), the GI50 in the assay on HCC 2998 was > 100 µM (inactive); with SR, 91.4 µM (inactive); in the assay on EKVX, 23.9 µM (inactive); in the assay with KM12, > 100 µM (inactive); in the assay with MDA-N it was > 100 µM (inactive); in the assay on NCI-H522 it was > 100 µM (inactive). Also, the GI50 in the assay with SNB-19, in the assay on CCRF-CEM, with SK-MEL-5, in the assay on 786-0, with OVCAR-4 and with COLO 205 was > 100 µM (inactive) throughout. Further, the GI50 with NCI-H460, in the assay on MOLT-4, with Malme-3M, in the assay with T47D and with IGROV-1 was > 100 µM (inactive) throughout.

In the case of `O=c1[nH]cc(/N=C/c2cc(Cl)ccc2O)c(=O)[nH]1`, the GI50 in the assay on HCC 2998 was 23.6 µM (inactive); with SR, 1.85 µM (inactive); in the assay with EKVX, 32.1 µM (inactive); in the assay with RPMI-8226 it was 5.93 µM (inactive); with KM12, 26.2 µM (inactive); with MDA-N, 37.8 µM (inactive). Also, the GI50 in the assay with NCI-H522 is 31.7 µM (inactive); in the assay on SNB-19, 20.7 µM (inactive); with CCRF-CEM, 2.26 µM (inactive); with SK-MEL-5 it was 20.1 µM (inactive); with 786-0 it was 22 µM (inactive); with OVCAR-4, 2.18 µM (inactive). Also, the GI50 in the assay with COLO 205 is 25.3 µM (inactive); in the assay with NCI-H460 it was 48.8 µM (inactive); in the assay on MOLT-4, 3.88 µM (inactive); with Malme-3M, 25.1 µM (inactive); with T47D, 14.8 µM (inactive); in the assay on IGROV-1, 7.83 µM (inactive).

For `N#CCCN(CCC#N)c1ccc(C(=N/c2ccc(F)cc2)/N=N/c2ccc(Cl)cc2)cc1`, the GI50 in the assay on HCC 2998, in the assay on SR, in the assay on EKVX, with RPMI-8226, with KM12 and in the assay on MDA-N was > 100 µM (inactive) each time. The GI50 in the assay on NCI-H522, in the assay on SNB-19, in the assay with CCRF-CEM, with SK-MEL-5, in the assay on 786-0 and in the assay on OVCAR-4 was > 100 µM (inactive) throughout. Besides, the GI50 in the assay with COLO 205, in the assay on NCI-H460, with MOLT-4, in the assay with T47D and with IGROV-1 was > 100 µM (inactive) in each case.

As to `C=CCSc1nc2c(N)ncnc2n1C1OC(CO)C(O)C1O` (stereo unspecified), the GI50 was > 100 µM (inactive) in the assay with SR; > 100 µM (inactive) in the assay on EKVX; > 100 µM (inactive) in the assay on RPMI-8226; 80.2 µM (inactive) in the assay with KM12; > 100 µM (inactive) in the assay with MDA-N; > 100 µM (inactive) in the assay with NCI-H522. Further, the GI50 in the assay with SNB-19, with SK-MEL-5, in the assay with 786-0, in the assay with OVCAR-4, in the assay on COLO 205 and in the assay on NCI-H460 was > 100 µM (inactive) each time. In addition, the GI50 in the assay on MOLT-4, with LOX IMVI, in the assay on Malme-3M, in the assay with T47D and in the assay with IGROV-1 was > 100 µM (inactive) throughout.

Turning to `CCSc1c(C)c2c(n(Cc3ccc(OC)cc3)c1=O)Cc1ccccc1C2`, the GI50 was 13.6 µM (inactive) in the assay on HCC 2998; 3.61 µM (inactive) with SR; 21.4 µM (inactive) with EKVX; 25.1 µM (inactive) in the assay on KM12; 10.4 µM (inactive) in the assay on MDA-N; 11.9 µM (inactive) in the assay with NCI-H522. In addition, the GI50 in the assay with SNB-19 is 18.2 µM (inactive); in the assay on CCRF-CEM, 2.02 µM (inactive); with SK-MEL-5, 15.4 µM (inactive); in the assay with 786-0 it was 11 µM (inactive); in the assay with OVCAR-4, 21.4 µM (inactive); in the assay on COLO 205 it was 35.6 µM (inactive). Also, the GI50 in the assay with NCI-H460 was 6.11 µM (inactive); in the assay with MOLT-4, 2.53 µM (inactive); in the assay with LOX IMVI it was 11.9 µM (inactive); with Malme-3M, 10.8 µM (inactive); in the assay with T47D, 30.5 µM (inactive); in the assay with IGROV-1 it was 19 µM (inactive).

For `[O-][n+]1cn[n+]([O-])c2ccccc21`, the GI50 in the assay with HCC 2998 is 27.1 µM (inactive); with SR, 18.4 µM (inactive); in the assay on EKVX it was 33 µM (inactive); in the assay on RPMI-8226, 28.6 µM (inactive); in the assay on KM12, 19.5 µM (inactive); in the assay on MDA-N, 20.1 µM (inactive). Besides, the GI50 is 15.1 µM (inactive) in the assay with NCI-H522; 84.1 µM (inactive) with SNB-19; 3.46 µM (inactive) with CCRF-CEM; > 10 µM (inactive) in the assay on SK-MEL-5; 14.6 µM (inactive) with 786-0; 19.2 µM (inactive) with COLO 205. For the same compound, the GI50 in the assay on MOLT-4 is 2.91 µM (inactive); with LOX IMVI, 23.9 µM (inactive); with Malme-3M, 18.6 µM (inactive); in the assay with T47D it was 5.97 µM (inactive); in the assay on IGROV-1, 11.2 µM (inactive).

As to `Cc1nc(-c2cc3cc([N+](=O)[O-])ccc3oc2=O)cs1`, the GI50 is > 100 µM (inactive) with HCC 2998; 71.3 µM (inactive) with SR; > 100 µM (inactive) in the assay on EKVX; > 100 µM (inactive) in the assay on RPMI-8226; > 100 µM (inactive) in the assay with KM12; > 100 µM (inactive) with MDA-N. Moreover, the GI50 in the assay with SNB-19 was > 100 µM (inactive); with CCRF-CEM, 32.9 µM (inactive); in the assay with SK-MEL-5, > 100 µM (inactive); in the assay on 786-0 it was > 100 µM (inactive); in the assay on OVCAR-4, > 100 µM (inactive); in the assay with COLO 205 it was > 100 µM (inactive). Moreover, the GI50 with NCI-H460, with MOLT-4, in the assay on LOX IMVI, in the assay with T47D and in the assay with IGROV-1 was > 100 µM (inactive) throughout.

Consider `COc1ccc2c(c1)OCC1(O)Cc3ccccc3OC21` (stereo unspecified), for which the GI50 in the assay on HCC 2998, in the assay with SR, with EKVX, in the assay with RPMI-8226, in the assay with KM12 and in the assay with MDA-N was > 100 µM (inactive) each time. Besides, the GI50 in the assay on NCI-H522 is > 100 µM (inactive); in the assay with CCRF-CEM it was > 100 µM (inactive); in the assay on SK-MEL-5 it was > 100 µM (inactive); in the assay on 786-0 it was > 100 µM (inactive); in the assay on OVCAR-4, 49.3 µM (inactive); with COLO 205, > 100 µM (inactive). Besides, the GI50 with MOLT-4 is 78.9 µM (inactive); in the assay with LOX IMVI it was > 100 µM (inactive); in the assay on Malme-3M, > 100 µM (inactive); with T47D, > 100 µM (inactive); in the assay on IGROV-1, > 100 µM (inactive).

On to `Cc1ccc(S(=O)(=O)C2=C([Si](C)(C)C)C3CC2[C@@H]2C4C=CC(CC4)[C@H]32)cc1` (stereo partly specified), for which the GI50 is > 100 µM (inactive) with HCC 2998; > 100 µM (inactive) with SR; > 100 µM (inactive) with EKVX; > 100 µM (inactive) with KM12; > 100 µM (inactive) in the assay on MDA-N; 51.9 µM (inactive) in the assay with NCI-H522. Further, the GI50 in the assay on SNB-19 was 23.8 µM (inactive); in the assay on SK-MEL-5, > 100 µM (inactive); in the assay on 786-0 it was 34.6 µM (inactive); with OVCAR-4 it was > 100 µM (inactive); in the assay on COLO 205 it was > 100 µM (inactive); in the assay on NCI-H460, 86.1 µM (inactive). In addition, the GI50 with MOLT-4 was > 100 µM (inactive); in the assay with LOX IMVI it was > 100 µM (inactive); with Malme-3M it was > 100 µM (inactive); with T47D, 37.9 µM (inactive); in the assay on IGROV-1, 85.5 µM (inactive).

In the case of `O=C(O)Cn1cc([N+](=O)[O-])c(=O)c2ccccc21`, the GI50 in the assay with HCC 2998, with SR, in the assay on KM12, in the assay on MDA-N, with NCI-H522 and in the assay on SNB-19 was > 100 µM (inactive) in each case. The GI50 was > 100 µM (inactive) in the assay on CCRF-CEM; > 100 µM (inactive) in the assay with SK-MEL-5; > 100 µM (inactive) with 786-0; 19.5 µM (inactive) with COLO 205; > 100 µM (inactive) with NCI-H460; > 100 µM (inactive) in the assay on MOLT-4. The GI50 with Malme-3M is > 100 µM (inactive); in the assay with T47D it was 18.8 µM (inactive); in the assay on IGROV-1, > 100 µM (inactive).

For `Clc1ccc(C(c2ccc(Cl)cc2)c2cncnc2)cc1`, the GI50 is 31.8 µM (inactive) with SR; > 10 µM (inactive) in the assay with EKVX; 34.4 µM (inactive) in the assay on RPMI-8226; 18.3 µM (inactive) with KM12; 14.2 µM (inactive) in the assay with MDA-N; 17.2 µM (inactive) in the assay with NCI-H522. The GI50 is 18.1 µM (inactive) in the assay with SNB-19; 17.5 µM (inactive) with CCRF-CEM; 13.2 µM (inactive) in the assay on SK-MEL-5; 17.3 µM (inactive) with 786-0; 15.2 µM (inactive) with OVCAR-4; 17.1 µM (inactive) in the assay on COLO 205. The GI50 in the assay with NCI-H460 is 17.6 µM (inactive); with MOLT-4, 20.6 µM (inactive); in the assay on LOX IMVI, 15.8 µM (inactive); with Malme-3M, 19.1 µM (inactive); in the assay on T47D it was 16.6 µM (inactive); in the assay with IGROV-1, 16 µM (inactive).
